Data as given in US12161630B2, “Methods to control infection using new generation small molecule growth inhibitors” (priority 2017, dated 2024).

Assays:
S. typhimurium WT [1] = test: Combined antimicrobial study between antibiotics and SMs; type: cell-based, Salmonella enterica subsp. enterica serovar Typhimurium LT2; details: for MBCAlone (MBC of the antibiotic by itself, no SM): S. typhimurium WT, adjusted M9 minimal broth; for MBCComb4 (MBC of antibiotic in antibiotic+SM4 combination) / SM4R (result of synergy testing, antibiotic+SM4): [SM4] 10 μM; for MBCComb5 (MBC of antibiotic in antibiotic+SM5 combination) / SM5R (result of synergy testing, antibiotic+SM5): [SM5] 25 μM; for effect of the presence of SM on antibiotic MBC: combined with SM1, SM3, SM4 or SM5; for reduction in MBC when combined with SM1: antibiotic combined with SM1
Method: Combined antimicrobial study between antibiotics and small molecules (SMs): The antimicrobial efficacy of several antibiotics commonly used to control Salmonella was studied once combined with the selected four SMs. […] The MBC of each antibiotic were pre-determined as described previously. Bacteria challenged with only SMs or antibiotics at the same concentrations were used to determine the ATB-SM combination effects. […] Plates were incubated in a Sunrise™ Tecan kinetic microplate reader for 12 hrs at 37° C. and the optical density (OD) was measure at 600 nm as described above. After challenging, survival was recorded following plating of the bacterial suspension on agar plate and incubated at 37° C. for 36 hrs. The ATB-SM combination effect was calculated as described in Doern CD, 2014 (12).

S. typhimurium WT [2] = test: High-throughput primary screen for S. typhimurium growth inhibitors at 200 μM; type: cell-based, Salmonella enterica subsp. enterica serovar Typhimurium LT2; details: adjusted M9 minimal broth, 12 hrs, 37° C., bactericidal = 100% growth inhibition and no growth on XLT4 agar, bacteriostatic = 100% growth inhibition but growth on XLT4 agar
Method: Identification of S. typhimurium growth inhibitors: The 4182 small molecules (SMs) were screened at 200 μM against S. typhimurium WT using HTS assay in a 96-well plate format. An overnight Salmonella suspension was normalized at 0.05 OD600 (approximately 3.5×10^7 CFU/ml) with an adjusted M9 minimal broth medium (12.7 mM Na2HPO4 7H2O; 22 mM KH2PO4; 18.7 mM NH4Cl; 2 mM MgSO4; 0.1 mM CaCl2; 0.4% glucose; 0.05% casamino acids). 100 μL of the suspension plus 2 μl of SMs (200 μM) were transferred into each well of a sterile, non-treated, flat bottom 96-well plate. Bacteria alone (negative control, NC), 2% DMSO plus bacteria (DMSO control), 20 μg/ml chloramphenicol or 50 μg/ml kanamycin plus bacteria (positive controls, PC), and M9 medium only were used as control. Plates were incubated in a Sunrise™ Tecan kinetic microplate reader for 12 hrs at 37° C. and the optical density (OD) was measure at 600 nm as described above. Percentage of inhibition=[…]. SMs were identified as growth inhibitors if their inhibition value after incubation was above 20% (value representing the inhibition level monitored with the DMSO controls). Cultures from wells showing no turbidimetric increase were transferred onto a XLT4 agar plate. Plates were incubated at 37° C. for 36 hrs.

CO/N=C(\C(=O)N[C@@H]1C(=O)N2C(C(=O)O)=C(COC(C)=O)CS[C@H]12)c1csc(N)n1 [Cefotaxime, cefotaxime]
MBCAlone (MBC of the antibiotic by itself, no SM) (S. typhimurium WT [1]): 3.2 µg/mL | MBCComb1 (MBC of antibiotic in antibiotic+SM1 combination) (S. typhimurium WT [1]; [SM1] 50 μM): 3.2 µg/mL | SM1R (result of synergy testing, antibiotic+SM1) (S. typhimurium WT [1]; [SM1] 50 μM): Ind | MBCComb3 (MBC of antibiotic in antibiotic+SM3 combination) (S. typhimurium WT [1]; [SM3] 25 μM): 3.2 µg/mL | SM3R (result of synergy testing, antibiotic+SM3) (S. typhimurium WT [1]; [SM3] 25 μM): Ind | MBCComb4 (MBC of antibiotic in antibiotic+SM4 combination) (S. typhimurium WT [1]): 3.2 µg/mL | SM4R (result of synergy testing, antibiotic+SM4) (S. typhimurium WT [1]): Ind | MBCComb5 (MBC of antibiotic in antibiotic+SM5 combination) (S. typhimurium WT [1]): 3.2 µg/mL | SM5R (result of synergy testing, antibiotic+SM5) (S. typhimurium WT [1]): Ind | effect of the presence of SM on antibiotic MBC (S. typhimurium WT [1]): no effect

CC[C@H]1OC(=O)[C@H](C)[C@@H](O[C@H]2C[C@@](C)(OC)[C@@H](O)[C@H](C)O2)[C@H](C)[C@@H](O[C@@H]2O[C@H](C)C[C@H](N(C)C)[C@H]2O)[C@](C)(O)C[C@@H](C)C(=O)[C@H](C)[C@@H](O)[C@]1(C)O [Erythromycin, erythromycin]
MBCAlone (MBC of the antibiotic by itself, no SM) (S. typhimurium WT [1]): 200 µg/mL | MBCComb1 (MBC of antibiotic in antibiotic+SM1 combination) (S. typhimurium WT [1]; [SM1] 50 μM): 200 µg/mL | SM1R (result of synergy testing, antibiotic+SM1) (S. typhimurium WT [1]; [SM1] 50 μM): Ind | MBCComb3 (MBC of antibiotic in antibiotic+SM3 combination) (S. typhimurium WT [1]; [SM3] 25 μM): 200 µg/mL | SM3R (result of synergy testing, antibiotic+SM3) (S. typhimurium WT [1]; [SM3] 25 μM): Ind | MBCComb4 (MBC of antibiotic in antibiotic+SM4 combination) (S. typhimurium WT [1]): 200 µg/mL | SM4R (result of synergy testing, antibiotic+SM4) (S. typhimurium WT [1]): Ind | MBCComb5 (MBC of antibiotic in antibiotic+SM5 combination) (S. typhimurium WT [1]): 200 µg/mL | SM5R (result of synergy testing, antibiotic+SM5) (S. typhimurium WT [1]): Ind | effect of the presence of SM on antibiotic MBC (S. typhimurium WT [1]): no effect

C[C@@H](O)[C@H]1C(=O)N2C(C(=O)O)=C(S[C@@H]3CN[C@H](C(=O)N(C)C)C3)[C@H](C)[C@H]12 [Meropenem, meropenem]
MBCAlone (MBC of the antibiotic by itself, no SM) (S. typhimurium WT [1]): 0.2 µg/mL | MBCComb1 (MBC of antibiotic in antibiotic+SM1 combination) (S. typhimurium WT [1]; [SM1] 5 μM): 0.16 µg/mL | SM1R (result of synergy testing, antibiotic+SM1) (S. typhimurium WT [1]; [SM1] 5 μM): Add | MBCComb1 (MBC of antibiotic in antibiotic+SM1 combination) (S. typhimurium WT [1]; [SM1] 10 μM): 0.08 µg/mL | SM1R (result of synergy testing, antibiotic+SM1) (S. typhimurium WT [1]; [SM1] 10 μM): Add | MBCComb1 (MBC of antibiotic in antibiotic+SM1 combination) (S. typhimurium WT [1]; [SM1] 20 μM): 0.04 µg/mL | SM1R (result of synergy testing, antibiotic+SM1) (S. typhimurium WT [1]; [SM1] 20 μM): Add | MBCComb3 (MBC of antibiotic in antibiotic+SM3 combination) (S. typhimurium WT [1]; [SM3] 15 μM): 0.16 µg/mL | SM3R (result of synergy testing, antibiotic+SM3) (S. typhimurium WT [1]; [SM3] 15 μM): Ind | MBCComb3 (MBC of antibiotic in antibiotic+SM3 combination) (S. typhimurium WT [1]; [SM3] 20 μM): 0.08 µg/mL | SM3R (result of synergy testing, antibiotic+SM3) (S. typhimurium WT [1]; [SM3] 20 μM): Ind | MBCComb4 (MBC of antibiotic in antibiotic+SM4 combination) (S. typhimurium WT [1]): 0.2 µg/mL | SM4R (result of synergy testing, antibiotic+SM4) (S. typhimurium WT [1]): Ind | MBCComb5 (MBC of antibiotic in antibiotic+SM5 combination) (S. typhimurium WT [1]): 0.2 µg/mL | SM5R (result of synergy testing, antibiotic+SM5) (S. typhimurium WT [1]): Ind | reduction in MBC when combined with SM1 (S. typhimurium WT [1]): up to 80%

CCn1cc(C(=O)O)c(=O)c2ccc(C)nc21 [Nalidixic Acid, nalidixic acid]
MBCAlone (MBC of the antibiotic by itself, no SM) (S. typhimurium WT [1]): 16 µg/mL | MBCComb1 (MBC of antibiotic in antibiotic+SM1 combination) (S. typhimurium WT [1]; [SM1] 30 μM): 8 µg/mL | SM1R (result of synergy testing, antibiotic+SM1) (S. typhimurium WT [1]; [SM1] 30 μM): Ind | MBCComb1 (MBC of antibiotic in antibiotic+SM1 combination) (S. typhimurium WT [1]; [SM1] 40 μM): 4.8 µg/mL | SM1R (result of synergy testing, antibiotic+SM1) (S. typhimurium WT [1]; [SM1] 40 μM): Ind | MBCComb3 (MBC of antibiotic in antibiotic+SM3 combination) (S. typhimurium WT [1]; [SM3] 25 μM): 16 µg/mL | SM3R (result of synergy testing, antibiotic+SM3) (S. typhimurium WT [1]; [SM3] 25 μM): Ind | MBCComb4 (MBC of antibiotic in antibiotic+SM4 combination) (S. typhimurium WT [1]): 16 µg/mL | SM4R (result of synergy testing, antibiotic+SM4) (S. typhimurium WT [1]): Ind | MBCComb5 (MBC of antibiotic in antibiotic+SM5 combination) (S. typhimurium WT [1]): 16 µg/mL | SM5R (result of synergy testing, antibiotic+SM5) (S. typhimurium WT [1]): Ind | reduction in MBC when combined with SM1 (S. typhimurium WT [1]): up to 70%

CN(Cc1ccccc1)CC(O)COc1ccc(CNCc2ccc(Cl)s2)cc1 (stereo not shown) [SM6, 1-[benzyl(methyl)amino]-3-[4-({[(5-chloro-2-thienyl)methyl]amino}methyl)phenoxy]-2-propanol]
Effect on S. Typhimurium at 200 μM (S. typhimurium WT [2]): Bactericidal

O=[N+]([O-])c1ccc(F)c(N=Cc2cc(Cl)cc(Cl)c2O)c1 [SM7, 2,4-dichloro-6-{[(2-fluoro-5-nitrophenyl)imino]methyl}phenol]
Effect on S. Typhimurium at 200 μM (S. typhimurium WT [2]): Bactericidal

COc1cccc(N=Cc2cc(Cl)cc(Cl)c2O)c1 [SM8, 2,4-dichloro-6-{[(3-methoxyphenyl)imino]methyl}phenol]
Effect on S. Typhimurium at 200 μM (S. typhimurium WT [2]): Bactericidal

CC(C)Cc1ccc(CN2CCCC(NC(=O)CN3CCCN(C)CC3)C2)cc1 (stereo not shown) [SM9, N-[1-(4-isobutylbenzyl)-3-piperidinyl]-2-(4-methyl-1,4-diazepan-1-yl)acetamide]
Effect on S. Typhimurium at 200 μM (S. typhimurium WT [2]): Bactericidal

CCOC(=O)c1c(N)sc(C(C)=O)c1C [SM10, ethyl 5-acetyl-2-amino-4-methyl-3-thiophenecarboxylate]
Effect on S. Typhimurium at 200 μM (S. typhimurium WT [2]): Bacteriostatic

COc1cccc(C2(c3ccc(O)cc3)CCCC2)c1 [SM11, 4-[1-(3-methoxyphenyl)cyclopentyl]phenol]
Effect on S. Typhimurium at 200 μM (S. typhimurium WT [2]): Bacteriostatic

O=C(O)c1cc(NN=Nc2ccc(Br)cc2)cc([N+](=O)[O-])c1 [SM12, 3-[3-(4-bromophenyl)-2-triazen-1-yl]-5-nitrobenzoic acid]
Effect on S. Typhimurium at 200 μM (S. typhimurium WT [2]): Bacteriostatic

Clc1ccc(CCNC2CCN(Cc3ccccc3)CC2)c(Cl)c1 [SM13, 1-benzyl-N-[2-(2,4-dichlorophenyl)ethyl]-4-piperidinamine]
Effect on S. Typhimurium at 200 μM (S. typhimurium WT [2]): Bacteriostatic

COc1ccc(CNCc2ccc(C)cc2)cc1OCC(O)CN1CCCCCCC1 (stereo not shown) [SM15, 1-(1-azocanyl)-3-(2-methoxy-5-{[(4-methylbenzyl)amino]methyl}phenoxy)-2-propanol]
Effect on S. Typhimurium at 200 μM (S. typhimurium WT [2]): Bacteriostatic

COc1cccc(N=Cc2cc(Br)ccc2O)c1 [SM16, 4-bromo-2-{[(3-methoxyphenyl)imino]methyl}phenol]
Effect on S. Typhimurium at 200 μM (S. typhimurium WT [2]): Bacteriostatic

CN1C(=O)NC(=O)C(=Cc2ccc([N+](=O)[O-])o2)C1=O [SM17, 1-methyl-5-[(5-nitro-2-furyl)methylene]-2,4,6(1H,3H,5H)-pyrimidinetrione]
Effect on S. Typhimurium at 200 μM (S. typhimurium WT [2]): Bacteriostatic

CC1=NN(c2ccccc2)C(=O)C1C(=O)c1ccccc1 (stereo not shown) [SM18, 4-benzoyl-5-methyl-2-phenyl-2,4-dihydro-3H-pyrazol-3-one]
Effect on S. Typhimurium at 200 μM (S. typhimurium WT [2]): Bacteriostatic

C(=Cc1ccccc1)CN1CCN(C2c3ccccc3-c3ccccc32)CC1 [SM19, 1-(9H-fluoren-9-yl)-4-(3-phenyl-2-propen-1-yl)piperazine]
Effect on S. Typhimurium at 200 μM (S. typhimurium WT [2]): Bacteriostatic
